Source: EP4813989A1, “CRYSTAL, PHARMACEUTICAL COMPOSITION, PREPARATION METHOD THEREFOR, AND USE THEREOF” (TYK Medicines, Inc., priority 2023, dated 2025)

Assays:
[1] = Pharmacokinetic test in SD rats; format: in vivo; settings: rats; for AUC(0-inf) / AUC(0-t) / Cmax / MRT last: 10 mg/kg; for Plasma concentration: 10 mg/kg p.o.
Experimental: Experimental animals: healthy adult SD rats, male, 6 in total, divided into two groups, with 3 rats per group, aged 6-8 weeks; and body weight approximately 200-300 g. The rats were fed in rat cages, and fasted (for at least 10 hours) with free access to water one day before the experiment. On the day of experiment, the rats were weighed and marked at the tail respectively. Blank blood samples were collected respectively before drug administration. The blood samples were collected via the tail vein. Drug administration method: intragastric gavage (p.o.): intragastric gavage with drug suspension; preparation of drug suspension: approximately 10 mg of test sample was accurately weighed, dissolved in 5% DMSO (calculated proportion), and vortexed with 10% solutol HS-15 and 85% saline to obtain a suspension with a concentration of 1.0 mg/mL; and the suspension was freshly prepared before use.
Sample collection: the rats were administered a single oral dose of 10mg/kg via intragastric gavage (p.o.). Timing was started immediately after the administration was completed, and blood samples were collected at 0.5, 1, 2, 4, 6, 8, 12 and 24 hours after administration. A volume of 0.1mL of whole blood was collected into EDTA-Na2 anticoagulant tubes, mixed by inverting 3-4 times, centrifuged at 10000 g for 5 minutes at 4°C to separate the plasma, and then the plasma was stored at -80 °C until testing. The blood samples were collected via the tail vein.
Sample preparation: 1) the samples were thawed, and 15 µL of unknown plasma samples before or after administration, standard series solutions, and single blank and double blank samples were respectively transferred into 1.5 mL centrifuge tubes. 2) 15 µL of protein precipitant (methanol) and 400 µL of internal standard solution (verapamil in methanol, approximately 10 ng/mL) were added to each sample sequentially, vortexed for 2 minutes, and then centrifuged at 4°C and 12000 rpm for 10 minutes. 3) The supernatant was collected for LC-MS/MS detection.
Analytical conditions: liquid chromatography conditions: liquid chromatography system: Shimadzu Nexera X2; chromatographic column: Agilent ZORBAX XDB-C18 3.5 (2.1 × 50 mm); column temperature: 35°C; mobile phase: A-5% acetonitrile (0.1% formic acid in water), B-95% acetonitrile (0.1% formic acid in water); injection volume: 3 µL; and
flow rate: 0.5 mL/min. Gradient elution was employed, and an elution program can be seen in the table below.
Mass spectrometry conditions: mass spectrometric analysis was carried out using an electrospray ionization (ESI) source in a positive ion mode with multiple reaction monitoring (MRM). The mass spectrometer ion source parameters and compound detection parameters can be seen in the table below.
PK parameter processing: pharmacokinetic (PK) parameters were calculated according to a plasma concentration from individual plasma concentration and corresponding sampling time data using Phoenix WinNonlin software with a non-compartmental model. (1) The PK parameters used for pharmacokinetic evaluation included: Cmax, AUC0-t, AUC0-∞, Tmax and t1/2.
(2) The parameters used for bioequivalence evaluation: Cmax, AUC0-t and AUC0-∞ were used for the bioequivalence evaluation.
Cmax: maximum plasma concentration measured within specified period, presented as measured value.
Tmax: time measured to reach maximum plasma concentration, presented as measured value. If the maximum value occurred at more than one time point, Tmax was defined as the first time point at which this value was observed.
AUC0-t: area under plasma concentration-time curve from 0 to last time point t.
AUC0-∞: area under plasma concentration-time curve from 0 to infinity. Ct was the last measured concentration, and λz was the terminal elimination rate constant. AUC0−∞ = AUC0−t + (Ct)/(λz)AUC0−∞ = AUC0−t + (Ct)/(λz) [formula]
t1/2: elimination or terminal half-life, estimated by ln2/λz.

[2] = Approximate solubility in organic solvents at room temperature; format: physicochemical
[3] = rat, in vivo, po, intragastric gavage 10 mg/kg, Mean
[4] = rat, in vivo, po, intragastric gavage 10 mg/kg, No. 1
[5] = rat, in vivo, po, intragastric gavage 10 mg/kg, No. 2
[6] = rat, in vivo, po, intragastric gavage 10 mg/kg, No. 3

Which AUC(0-inf) [1, 3] does the source give for `C[C@@H](Nc1ccn2ncc(C3=NOC(C)(C)N3)c2n1)c1cc(F)cc(F)c1F` [crystal form A] here?
The AUC(0-inf) was 4800 ng·h/mL.

What about the AUC(0-t) [1, 3] of the same compound?
Its AUC(0-t) is 4730 ng·h/mL.

What about the Cmax [1, 3] of the same compound?
The Cmax was 578 ng/mL.

What about the MRT last [1, 3] of the same compound?
Its MRT last is 6.09 h.

And the AUC(0-inf) [1, 4]?
The AUC(0-inf) was 4390 ng·h/mL.

What about the AUC(0-t) [1, 4] of the same compound?
Its AUC(0-t) is 4320 ng·h/mL.

And the Cmax [1, 4]?
Its Cmax is 652 ng/mL.

What about the MRT last [1, 4] of the same compound?
The MRT last was 6.09 h.

What about the AUC(0-inf) [1, 5] of the same compound?
Its AUC(0-inf) is 3580 ng·h/mL.

What about the AUC(0-t) [1, 5] of the same compound?
Its AUC(0-t) is 3550 ng·h/mL.

What about the Cmax [1, 5] of the same compound?
The Cmax was 459 ng/mL.

And the MRT last [1, 5]?
Its MRT last is 5.52 h.

And the AUC(0-inf) [1, 6]?
Its AUC(0-inf) is 6440 ng·h/mL.

What about the AUC(0-t) [1, 6] of the same compound?
Its AUC(0-t) is 6330 ng·h/mL.

And the Cmax [1, 6]?
Its Cmax is 623 ng/mL.

What about the MRT last [1, 6] of the same compound?
The MRT last was 6.66 h.

What about the Tmax [1, 4] of the same compound?
The Tmax was 4 h.

And the Plasma concentration ([1]; 0.5 h, Mean)?
The Plasma concentration was 224 ng/mL.

And the Plasma concentration ([1]; 0.5 h, No. 1)?
The Plasma concentration was 220 ng/mL.

What about the Plasma concentration ([1]; 0.5 h, No. 2) of the same compound?
Its Plasma concentration is 168 ng/mL.

What about the Plasma concentration ([1]; 0.5 h, No. 3) of the same compound?
The Plasma concentration was 285 ng/mL.

And the Plasma concentration ([1]; 1 h, Mean)?
The Plasma concentration was 300 ng/mL.

And the Plasma concentration ([1]; 1 h, No. 1)?
Its Plasma concentration is 170 ng/mL.

And the Plasma concentration ([1]; 1 h, No. 2)?
Its Plasma concentration is 257 ng/mL.

And the Plasma concentration ([1]; 1 h, No. 3)?
Its Plasma concentration is 474 ng/mL.

And the Plasma concentration ([1]; 2 h, Mean)?
Its Plasma concentration is 457 ng/mL.

And the Plasma concentration ([1]; 2 h, No. 1)?
Its Plasma concentration is 448 ng/mL.

What about the Plasma concentration ([1]; 2 h, No. 2) of the same compound?
Its Plasma concentration is 453 ng/mL.

And the Plasma concentration ([1]; 2 h, No. 3)?
The Plasma concentration was 470 ng/mL.

And the Plasma concentration ([1]; 4 h, Mean)?
Its Plasma concentration is 578 ng/mL.

What about the Plasma concentration ([1]; 4 h, No. 1) of the same compound?
Its Plasma concentration is 652 ng/mL.

What about the Plasma concentration ([1]; 4 h, No. 2) of the same compound?
The Plasma concentration was 459 ng/mL.

And the Plasma concentration ([1]; 4 h, No. 3)?
Its Plasma concentration is 623 ng/mL.

And the Plasma concentration ([1]; 6 h, Mean)?
The Plasma concentration was 395 ng/mL.

And the Plasma concentration ([1]; 6 h, No. 1)?
Its Plasma concentration is 307 ng/mL.

And the Plasma concentration ([1]; 6 h, No. 2)?
The Plasma concentration was 277 ng/mL.

What about the Plasma concentration ([1]; 6 h, No. 3) of the same compound?
Its Plasma concentration is 602 ng/mL.

And the Plasma concentration ([1]; 8 h, Mean)?
Its Plasma concentration is 312 ng/mL.

And the Plasma concentration ([1]; 8 h, No. 1)?
Its Plasma concentration is 240 ng/mL.

And the Plasma concentration ([1]; 8 h, No. 2)?
Its Plasma concentration is 238 ng/mL.

What about the Plasma concentration ([1]; 8 h, No. 3) of the same compound?
Its Plasma concentration is 459 ng/mL.

And the Plasma concentration ([1]; 12 h, Mean)?
The Plasma concentration was 93.8 ng/mL.

And the Plasma concentration ([1]; 12 h, No. 1)?
Its Plasma concentration is 88.3 ng/mL.

What about the Plasma concentration ([1]; 12 h, No. 2) of the same compound?
Its Plasma concentration is 47.2 ng/mL.

And the Plasma concentration ([1]; 12 h, No. 3)?
Its Plasma concentration is 146 ng/mL.

What about the Plasma concentration ([1]; 24 h, Mean) of the same compound?
The Plasma concentration was 12.7 ng/mL.

What about the Plasma concentration ([1]; 24 h, No. 1) of the same compound?
The Plasma concentration was 11.6 ng/mL.

And the Plasma concentration ([1]; 24 h, No. 2)?
The Plasma concentration was 5.25 ng/mL.

And the Plasma concentration ([1]; 24 h, No. 3)?
The Plasma concentration was 21.3 ng/mL.

And the HL_ ([1]; intragastric gavage 10 mg/kg, Mean)?
The HL_ was 3.51 h.

What about the HL_ ([1]; intragastric gavage 10 mg/kg, No. 1) of the same compound?
The HL_ was 3.76 h.

And the HL_ ([1]; intragastric gavage 10 mg/kg, No. 2)?
Its HL_ is 3.07 h.

And the HL_ ([1]; intragastric gavage 10 mg/kg, No. 3)?
Its HL_ is 3.70 h.

What about the solubility ([2]; Acetone) of the same compound?
Its solubility is greater than 40 mg/mL.

And the solubility ([2]; Acetonitrile)?
The solubility was greater than 44 mg/mL.

And the solubility ([2]; Dichloromethane)?
Its solubility is greater than 40 mg/mL.

What about the solubility ([2]; Ethanol) of the same compound?
Its solubility is greater than 38 mg/mL.

And the solubility ([2]; Ethyl acetate)?
Its solubility is greater than 44 mg/mL.

And the solubility ([2]; Isopropanol)?
The solubility was greater than 42 mg/mL.

And the solubility ([2]; Isopropyl acetate)?
Its solubility is greater than 38 mg/mL.

What about the solubility ([2]; Methanol) of the same compound?
Its solubility is greater than 36 mg/mL.

And the solubility ([2]; Methyl isobutyl ketone)?
Its solubility is greater than 40 mg/mL.

What about the solubility ([2]; Trichloromethane) of the same compound?
Its solubility is greater than 44 mg/mL.
